Article PMC8370991, “Structural basis for the inhibition of HTLV-1 integration inferred from cryo-EM deltaretroviral intasome structures” (Nature Communications, 2021)
Where two headings read alike, the source gives them in different places.

Molecular target: T1, recombinant HTLV-1 IN (Human T-cell leukemia virus 1, UniProt P03362)
T1 construct: made in house
Assay: In vitro integration strand transfer assay with HTLV-1 IN
Format: biochemical
Settings: for HTLV-1 IN strand transfer activity (No drug = 100): INSTI at 634 nM; for IC50 compared with that of RAL: dose-response strand transfer assays
Protocol: We used in vitro strand transfer assays to screen this small molecule library for its ability to inhibit recombinant HTLV-1 IN. The enzyme was incubated with an oligonucleotide vDNA donor mimic in the presence or absence of INSTIs and was allowed to react with a supercoiled plasmid mimicking target DNA. During the screening, the concentration of each compound was adjusted to 634 nM to provide optimal resolution of efficacy between well- and under-performing compounds.
The donor vDNA that mimics the 3′-processed LTR of HTLV-1 or STLV-1 DNA was preassembled by annealing the U5_S20Q_UP and U5_S20Q_B or MarB43_U5_S30UP or MarB43_U5_S30B oligonucleotides, respectively (Supplementary Table 4) in 100 mM Tris pH 7.4, 400 mM NaCl. For HTLV-1 IN, strand transfer reactions were conducted in a solution of 24.3 mM PIPES pH 6.0, 138.4 mM NaCl, 16.6 mM MgCl2, 5.8 μM ZnCl2, 12.7 mM DTT, 0.53 μM donor DNA and 4 μg of HTLV-1 IN[9],[39]. In brief, the reaction was incubated at RT for 15 min in the presence of an INSTI or dimethyl sulfoxide (DMSO) control and the reaction was started by the addition of 300 ng of pGEM-9Zf(-) supercoiled plasmid DNA. The reaction was incubated for 1 h at 37 °C and stopped by adding 0.5% SDS and 25 mM ethylenediaminetetraacetic acid (EDTA), pH 8.0.
Proteins were degraded by incubation with 30 μg of proteinase K (Roche) at 37 °C for 1 h. DNA was precipitated at −20 °C overnight in the presence of ethanol supplemented with 20 μg of glycogen and then resuspended in 1.5× agarose loading dye. The DNA products were separated by electrophoresis through 1.5% agarose gel and stained with ethidium bromide and imaged using the BioRad GelDox XR + imager. The data were analysed and the IC50 calculated as previously described. In brief, the DNA band that corresponds to the concerted integration product was quantified by densitometry in ImageLab 4.1 (Bio-Rad). All experiments were done in triplicate. Quantified data points were fitted to dose–response curves in Prism 9. The cumulative standard deviation for each drug was calculated as an average of the upper limit and lower limit values: Lowerlimit=IC50/10^logSE(IC50) Upperlimit=IC50×10^logSE(IC50)

[1] = Replicate 1, read-out: HTLV-1 IN strand transfer IC50
[2] = Replicate 2, read-out: HTLV-1 IN strand transfer IC50
[3] = Replicate 3, read-out: HTLV-1 IN strand transfer IC50
[4] = integrase strand-transfer drug titration, n = 3, read-out: HTLV-1 IC50 ± stdev

T1 sequence (P03362 1168-1462): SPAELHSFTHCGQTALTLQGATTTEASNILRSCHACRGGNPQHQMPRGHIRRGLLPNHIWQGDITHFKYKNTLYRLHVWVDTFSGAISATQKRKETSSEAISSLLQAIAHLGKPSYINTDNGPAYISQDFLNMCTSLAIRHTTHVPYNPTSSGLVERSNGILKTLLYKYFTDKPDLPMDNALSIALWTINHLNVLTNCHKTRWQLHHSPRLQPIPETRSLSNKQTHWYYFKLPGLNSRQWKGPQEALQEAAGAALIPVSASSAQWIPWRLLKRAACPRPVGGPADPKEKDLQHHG

Row | SMILES | HTLV-1 IN strand transfer activity (No drug = 100) (Replicate 1) | HTLV-1 IN strand transfer activity (No drug = 100) (Replicate 2) | HTLV-1 IN strand transfer activity (No drug = 100) (Replicate 3) | IC50 [1] | IC50 [2] | IC50 [3] | IC50 [4] | IC50 compared with that of RAL | inhibition of HTLV-1 IN in the screen compared with RAL (each compound at 634 nM)
1 | O=C1c2ccc(O)c(O)c2C(=O)N1Cc1ccc(F)c(Cl)c1 [XZ89, 2-(3-chloro-4-fluorobenzyl)-4,5-dihydroxyisoindoline-1,3-dione] | 87.9286% | 85.883% | 98.5818% |  |  |  |  |  | 
2 | CC(C)NC(=O)/C=C/c1cnc2c(c1)c(N)c(C(=O)NCc1ccc(F)cc1F)c(=O)n2O [XZ452, (E)-4-amino-N-(2,4-difluorobenzyl)-1-hydroxy-6-(3-(isopropylamino)-3-oxoprop-1-en-1-yl)-2-oxo-1,2-dihydro-1,8-naphthyridine-3-carboxamide] | 11.3751% | 23.2017% | 17.2877% | 0.174 µM | 0.162 µM | 0.229 µM | 0.182 ± 0.0447 µM |  | 
3 | CN(C)C(=O)c1nc(O)c(O)c2c1CCN(Cc1ccc(F)c(Cl)c1)C2=O [XZ235, 6-(3-chloro-4-fluorobenzyl)-3,4-dihydroxy-N,N-dimethyl-5-oxo-5,6,7,8-tetrahydro-2,6-naphthyridine-1-carboxamide] | 50.5732% | 55.8637% | 62.5799% |  |  |  |  |  | 
4 | O=C(NN1Cc2ccc(O)c(O)c2C1=O)c1cccc(O)c1O [XZ49, N-(6,7-dihydroxy-1-oxoisoindolin-2-yl)-2,3-dihydroxybenzamide] | 94.3672% | 88.3747% | 109.808% |  |  |  |  |  | 
5 | Nc1c(C(=O)NCc2ccc(F)cc2F)c(=O)n(O)c2ncc(CCCOCCO)cc12 [XZ432, 4-amino-N-(2,4-difluorobenzyl)-1-hydroxy-6-(3-(2-hydroxyethoxy)propyl)-2-oxo-1,2-dihydro-1,8-naphthyridine-3-carboxamide] | 18.6132% | 21.9961% | 19.5014% | 0.177 µM | 0.156 µM | 0.173 µM | 0.168 ± 0.017 µM |  | 
6 | O=C(O)/C(O)=C/C(=O)c1cc(OCc2ccccc2)cc(OCc2ccccc2)c1 [XZ320, (Z)-4-(3,5-bis(benzyloxy)phenyl)-2-hydroxy-4-oxobut-2-enoic acid, reference compound] | 35.3455% | 62.3815% | 55.2426% |  |  |  |  |  | 
7 | Cc1c2c(c(O)c(=O)n1Cc1ccc(F)c(Cl)c1)C(=O)N(C)C2=O [XZ242, 5-(3-chloro-4-fluorobenzyl)-7-hydroxy-2,4-dimethyl-1H-pyrrolo[3,4-c]pyridine-1,3,6(2H,5H)-trione] | 115.41% | 99.061% | 100.661% |  |  |  |  |  | 
8 | Nc1c(C(=O)NCc2ccc(F)cc2F)c(=O)n(O)c2ncc(-c3ccccc3)cc12 [XZ420, 4-amino-N-(2,4-difluorobenzyl)-1-hydroxy-2-oxo-6-phenyl-1,2-dihydro-1,8-naphthyridine-3-carboxamide] | 20.0015% | 29.6468% | 21.6983% | 0.276 µM | 0.499 µM | 0.466 µM | 0.411 ± 0.093 µM | no significant improvement over RAL | 
9 | CN(C)S(=O)(=O)c1cc(O)c(O)c2c1CN(Cc1ccc(F)c(Cl)c1)C2=O [XZ259, 2-(3-chloro-4-fluorobenzyl)-6,7-dihydroxy-N,N-dimethyl-1-oxoisoindoline-4-sulfonamide] | 63.0889% | 67.971% | 68.9907% |  |  |  |  |  | 
10 | CCN1CCn2c(c3c(c(O)c2=O)C(=O)N(Cc2ccc(F)c(Cl)c2)C3=O)C1=O [XZ256, 9-(3-chloro-4-fluorobenzyl)-2-ethyl-7-hydroxy-3,4-dihydropyrrolo[3',4':3,4]pyrido[1,2-a]pyrazine-1,6,8,10(2H,9H)-tetraone] | 112.467% | 93.5244% | 114.376% |  |  |  |  |  | 
11 | O=C(NNC(=O)c1cccc(O)c1O)c1cccc(O)c1O [XZ15, N'-(2,3-dihydroxybenzoyl)-2,3-dihydroxybenzohydrazide] | 99.084% | 89.5316% | 92.2753% |  |  |  |  |  | 
12 | Nc1ccc(-c2ccc(Nc3cc(=O)n(O)c4ncccc34)cc2)cc1 [XZ460, 4-((4'-amino-[1,1'-biphenyl]-4-yl)amino)-1-hydroxy-1,8-naphthyridin-2(1H)-one] | 91.7662% | 81.7265% | 81.1342% |  |  |  |  |  | 
13 | Nc1c(C(=O)NCc2ccc(F)cc2F)c(=O)n(O)c2nc(N3CCOCC3)ccc12 [XZ413, 4-amino-N-(2,4-difluorobenzyl)-1-hydroxy-7-morpholino-2-oxo-1,2-dihydro-1,8-naphthyridine-3-carboxamide] | 103.686% | 92.8191% | 81.1252% |  |  |  |  |  | 
14 | COC(=O)c1c(Nc2ccc(-c3ccc(N)cc3)cc2)c2cccnc2n(O)c1=O [XZ456, methyl 4-((4'-amino-[1,1'-biphenyl]-4-yl)amino)-1-hydroxy-2-oxo-1,2-dihydro-1,8-naphthyridine-3-carboxylate] | 112.032% | 94.791% | 89.3626% |  |  |  |  |  | 
15 | O=C(NCc1ccc(F)cc1F)c1c(NCCO)c2cc(CCCCCO)cnc2n(O)c1=O [XZ439, N-(2,4-difluorobenzyl)-1-hydroxy-4-((2-hydroxyethyl)amino)-6-(5-hydroxypentyl)-2-oxo-1,2-dihydro-1,8-naphthyridine-3-carboxamide] | 27.6089% | 29.3463% | 25.7676% | 0.27 µM | 0.239 µM | 0.232 µM |  |  | 
16 | COC(=O)CCc1c2c(c(O)c(=O)n1C(C)C)C(=O)N(Cc1ccc(F)c(Cl)c1)C2=O [XZ220, methyl 3-(2-(3-chloro-4-fluorobenzyl)-7-hydroxy-5-isopropyl-1,3,6-trioxo-2,3,5,6-tetrahydro-1H-pyrrolo[3,4-c]pyridin-4-yl)propanoate] | 93.628% | 97.195% | 85.9754% |  |  |  |  |  | 
17 | O=C(NCc1ccc(F)cc1F)c1c(NCCO)c2cccnc2n(O)c1=O [XZ378, N-(2,4-difluorobenzyl)-1-hydroxy-4-((2-hydroxyethyl)amino)-2-oxo-1,2-dihydro-1,8-naphthyridine-3-carboxamide] | 14.3053% | 44.0798% | 36.7031% | 0.311 µM | 0.474 µM | 0.392 µM | 0.397 ± 0.064 µM | no significant improvement over RAL | outperformed RAL
